Test in all cases: cells
Common to all, as to design: Anti-proliferation, 10-point dose response, CellTiter-Glo luminescence (MTT stated for KM12(Luc)), GI50 fitted in Prism
On the technique in general: In ATP-based viability assays light output follows the ATP content of the culture.

One assay concerns AGS. The note with it: Homo sapiens, AGS, 72 h, read-out: GI50 (µM) a.
Another assay deals with AN3-CA. The note with it: Homo sapiens, AN3-CA, 72 h, read-out: GI50 (µM) a.
Another assay deals with C8161. The note with it: Homo sapiens, C8161, 72 h, read-out: GI50 (µM) a.
The subject of the next assay is HTH-7. The note with it: KM12-Luc, 72 h, read-out: GI50 (µM) a.
The next assay has as its system MDA-MB-231. The note with it: Homo sapiens, MDA-MB-231, 72 h, read-out: GI50 (µM) a.
A further assay relates to MDA-MB-453. The note with it: Homo sapiens, MDA-MB-453, 72 h, read-out: GI50 (µM) a.
The subject of another assay is NCI-H1666. Conditions: Homo sapiens, NCI-H1666, 72 h, read-out: GI50 (µM) a.
For the next assay, the system named is NCI-H2087. The note with it: Homo sapiens, NCI-H2087, 72 h, read-out: GI50 (µM) a.
For the next assay, the system named is NCI-H2228. The note with it: Homo sapiens, NCI-H2228, 72 h, read-out: GI50 (µM) a.
The next assay deals with SK-HEP-1. Conditions: Homo sapiens, SK-HEP1, 72 h, read-out: GI50 (µM) a.
Another assay relates to T98G. Conditions: Homo sapiens, T98G, 72 h, read-out: GI50 (µM) a.
Another assay concerns UMUC3. Conditions: Homo sapiens, UMUC3, 72 h, read-out: GI50 (µM) a.

As usually defined, the GI50 is the concentration giving 50% growth inhibition. For the molecule `COc1cc(CCc2cc(NC(=O)c3ccc(N4C[C@@H](C)N[C@@H](C)C4)cc3)n[nH]2)cc(OC)c1` [AZD4547], the GI50 was determined as 58.1 µM in the assay on AGS; 0.2 µM with AN3-CA; 11.1 µM in the assay with C8161; 6.44 µM in the assay with HTH-7; 20.9 µM in the assay with MDA-MB-231; 5.36 µM in the assay on MDA-MB-453. Moreover, the GI50 in the assay on NCI-H1666 is 10.8 µM; in the assay with NCI-H2087 it was 27.4 µM; in the assay on NCI-H2228 it was 17.2 µM; with SK-HEP-1, 12.6 µM; in the assay with T98G it was 5.21 µM; in the assay on UMUC3 it was 46.3 µM.

(Values after publication PMC8591201, “Anti-Tumor Activity of AZD4547 Against NTRK1 Fusion Positive Cancer Cells Through Inhibition of NTRKs” (Frontiers in Oncology, 2021).)
